Laboratory results as given in patent publication US20150105252A1, “SUBSTITUTED PYRAZOLES AS HERBICIDES” (E I DU PONT DE NEMOURS AND COMPANY, priority 2013, published 2015).

Experiments:
crabgrass, large = experiment: Test A preemergence; type: in vivo, Digitaria sanguinalis; details: preemergence
In short: (§1)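 Visual injury ratings, 0 = no effect to 100 = complete control, taken about 10 days after treatment against untreated controls. Test chemicals, in a non-phytotoxic surfactant-containing solvent, were sprayed onto soil preemergence or onto one- to two-leaf plants (2–10 cm) postemergence, in loam–sand soil under greenhouse conditions.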

ragweed = experiment: Test C preemergence; type: in vivo, Ambrosia elation; details: for Plant response rating (scale of 0 to 100), Ragweed: Preemergence, 250 g ai/ha
In short: (§2)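 Scores of 0 (no effect) to 100 (complete control) were assigned by eye after 13–15 days, comparing treated pots with controls. Soil-applied (preemergence) treatments went onto seeds in loam and sand; foliar (postemergence) treatments onto 1- to 4-leaf plants in peat medium.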

wheat [1] = experiment: Test A postemergence; type: in vivo, Triticum aestivum
In short: as §1

rice = experiment: Test B flood; type: in vivo, Oryza sativa; details: 250 g ai/ha, visual rating on 0 to 100 scale (0 no effect, 100 complete control), 13 to 15 days
In short: (§3)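 Two-leaf-stage plants, pots flooded (3 cm above soil) and treated through the water, which stayed at that depth. After 13–15 days in greenhouse conditions, visual assessment versus controls: 0 is no effect, 100 complete control, dash means no result.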

sedge, umbrella = experiment: Test B flood; type: in vivo, Cyperus difformis; details: 250 g ai/ha, visual rating on 0 to 100 scale (0 no effect, 100 complete control), 13 to 15 days
In short: as §3

wheat [2] = experiment: Test A preemergence; type: in vivo, Triticum aestivum; details: preemergence
In short: as §1

barnyardgrass = experiment: Test A postemergence; type: in vivo, Echinochloa crus-galli
In short: as §1

pigweed = experiment: Test A preemergence; type: in vivo, Amaranthus retroflexus; details: preemergence
In short: as §1

foxtail, giant [3] = experiment: Test A preemergence; type: in vivo, Setaria faberii; details: preemergence
In short: as §1

morningglory = experiment: Test C preemergence; type: in vivo, Ipomoea coccinea; details: for Plant response rating (scale of 0 to 100), Morningglory: Preemergence, 250 g ai/ha
In short: as §2

corn = experiment: Test A preemergence; type: in vivo, Zea mays; details: preemergence
In short: as §1

ducksalad = experiment: Test B flood; type: in vivo, Heteranthera limosa; details: 250 g ai/ha, visual rating on 0 to 100 scale (0 no effect, 100 complete control), 13 to 15 days
In short: as §3

velvetleaf = experiment: Test A preemergence; type: in vivo, Abutilon theophrasti; details: preemergence
In short: as §1

foxtail, giant [4] = experiment: Test A postemergence; type: in vivo, Setaria faberii
In short: as §1

nutsedge, yellow = experiment: Test C preemergence; type: in vivo, Cyperus esculentus; details: for Plant response rating (scale of 0 to 100), Nutsedge, Yellow: Preemergence, 250 g ai/ha
In short: as §2

[5] = 125 g ai/ha, visual injury, 0 to 100 scale, approx. 10 days
[6] = 500 g ai/ha, visual injury after approx. 10 days, 0 to 100 scale (0 no effect, 100 complete control)
[7] = preemergence, 31 g ai/ha, visual rating, scale 0 to 100 (0 no effect, 100 complete control), 13 to 15 days
[8] = preemergence, 62 g ai/ha, scale 0 to 100 (0 no effect, 100 complete control), 13 to 15 days
[9] = preemergence, 125 g ai/ha, scale 0 to 100, 0 is no effect, 100 is complete control
[10] = Postemergence, 500 g ai/ha, visual rating after approx. 10 days, 0 to 100 scale (0 no effect, 100 complete control)
[11] = postemergence, 125 g ai/ha, about 10 days, visual rating on 0 to 100 scale (0 no effect, 100 complete control)
[12] = preemergence, 125 g ai/ha, 13 to 15 days, scale 0 to 100, 0 = no effect, 100 = complete control
[13] = Postemergence, 500 g ai/ha, 0 to 100 scale (0 no effect, 100 complete control)

SMILES	Crabgrass, Large plant response rating (crabgrass, large; [5])	Crabgrass, Large plant response rating (crabgrass, large; [6])	Plant response rating (scale of 0 to 100), Ragweed (ragweed)	Ragweed plant response rating (ragweed; [7])	Ragweed plant response rating (ragweed; [8])	Wheat plant response rating (wheat [1]; [11])	Plant response rating, Rice (rice)	Plant response rating, Sedge, Umbrella (sedge, umbrella)	Wheat plant response rating (wheat [2]; [5])	Wheat plant response rating (wheat [2]; [6])	Barnyardgrass plant response rating (barnyardgrass; [11])	Pigweed plant response rating (pigweed; [5])	Pigweed plant response rating (pigweed; [6])	Foxtail, Giant plant response rating (foxtail, giant [3]; [5])	Foxtail, Giant plant response rating (foxtail, giant [3]; [6])	Plant response rating (scale of 0 to 100), Morningglory (morningglory)	Morningglory plant response rating (morningglory; [7])	Morningglory plant response rating (morningglory; [8])	Corn plant response rating (corn; [5])	Corn plant response rating (corn; [6])	further results
CCCc1cc(C(=O)NCC(F)(F)F)nn1Cc1ccnc(C(F)(F)F)c1 [Compound 105]	100	100	98	98	98	100	90	95	60	100	90	100	100	100	100	100	100	100	60	70	Ragweed plant response rating (ragweed; [9]): 98; Wheat plant response rating (wheat [1]; [10]): 100; Barnyardgrass plant response rating (barnyardgrass; [10]): 100; Morningglory plant response rating (morningglory; [9]): 100; Plant response rating, Ducksalad (ducksalad): 95; Velvetleaf plant response rating (velvetleaf; [5]): 100; Velvetleaf plant response rating (velvetleaf; [6]): 100; Foxtail, Giant plant response rating (foxtail, giant [4]; [10]): 100; Foxtail, Giant plant response rating (foxtail, giant [4]; [11]): 100; Plant response rating (scale of 0 to 100), Nutsedge, Yellow (nutsedge, yellow): 95; Nutsedge, Yellow plant response rating (nutsedge, yellow; [7]): 50; Nutsedge, Yellow plant response rating (nutsedge, yellow; [8]): 85; Nutsedge, Yellow plant response rating (nutsedge, yellow; [9]): 95
CCCc1cc(C(=O)NCC)nn1Cc1cc(C(F)(F)F)nn1C [Compound 129]	100	100	100	85	90	50	40	95	50	100	90	100	100	100	100	100	45	98	10	30	Plant response rating, Ragweed (ragweed; [12]): 98; Wheat plant response rating (wheat [1]; [13]): 70; Barnyardgrass plant response rating (barnyardgrass; [13]): 90; Plant response rating, Morningglory (morningglory; [12]): 100; Plant response rating, Ducksalad (ducksalad): 95; Velvetleaf plant response rating (velvetleaf; [5]): 100; Velvetleaf plant response rating (velvetleaf; [6]): 100; Foxtail, Giant plant response rating (foxtail, giant [4]; [13]): 90; Foxtail, Giant plant response rating (foxtail, giant [4]; [11]): 80; Plant response rating (scale of 0 to 100), Nutsedge, Yellow (nutsedge, yellow): 75; Nutsedge, Yellow plant response rating (nutsedge, yellow; [7]): 5; Nutsedge, Yellow plant response rating (nutsedge, yellow; [8]): 25; Plant response rating, Nutsedge, Yellow (nutsedge, yellow; [12]): 60
